From PubChem BioAssay (NCI)
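Results reflect a 48-hour exposure of cells in 96-well plates to compound at five concentrations. GI50 marks 50% less growth. At the TGI there is no net growth.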

Columns and labels:
Experiment in all cases: growth of human tumour cells (NCI), 48 h; in the data active = GI50 below about 0.43 µM; inactive = the rest
786-0 renal = test system: 786-0 renal
A498 renal = test system: A498 renal
A549 NSCLC = test system: A549 NSCLC
ACHN renal = test system: ACHN renal
BT-549 breast = test system: BT-549 breast
CAKI-1 renal = test system: CAKI-1 renal
CCRF-CEM leukemia = test system: CCRF-CEM leukemia
COLO 205 colon = test system: COLO 205 colon
DU-145 prostate = test system: DU-145 prostate
EKVX NSCLC = test system: EKVX NSCLC
HCC-2998 colon = test system: HCC-2998 colon
HCT-116 colon = test system: HCT-116 colon
HCT-15 colon = test system: HCT-15 colon
HL-60(TB) leukemia = test system: HL-60(TB) leukemia
HOP-62 NSCLC = test system: HOP-62 NSCLC
HOP-92 NSCLC = test system: HOP-92 NSCLC
HS 578T breast = test system: HS 578T breast
HT29 colon = test system: HT29 colon
IGROV1 ovarian = test system: IGROV1 ovarian
K-562 leukemia = test system: K-562 leukemia
KM12 colon = test system: KM12 colon
LOX IMVI melanoma = test system: LOX IMVI melanoma
M14 melanoma = test system: M14 melanoma
MALME-3M melanoma = test system: MALME-3M melanoma
MCF7 breast = test system: MCF7 breast
MDA-MB-231 breast = test system: MDA-MB-231 breast
MDA-MB-435 = test system: MDA-MB-435
MDA-N = test system: MDA-N
MOLT-4 leukemia = test system: MOLT-4 leukemia
NCI-H226 lung = test system: NCI-H226 lung
NCI-H23 lung = test system: NCI-H23 lung
NCI-H460 lung = test system: NCI-H460 lung
NCI-H522 lung = test system: NCI-H522 lung
NCI/ADR-RES ovarian = test system: NCI/ADR-RES ovarian
OVCAR-3 ovarian = test system: OVCAR-3 ovarian
OVCAR-4 ovarian = test system: OVCAR-4 ovarian
OVCAR-5 ovarian = test system: OVCAR-5 ovarian
OVCAR-8 ovarian = test system: OVCAR-8 ovarian
PC-3 prostate = test system: PC-3 prostate
RPMI-8226 leukemia = test system: RPMI-8226 leukemia
RXF 393 renal = test system: RXF 393 renal
SF-268 CNS = test system: SF-268 CNS
SF-295 CNS = test system: SF-295 CNS
SF-539 CNS = test system: SF-539 CNS
SK-MEL-2 melanoma = test system: SK-MEL-2 melanoma
SK-MEL-28 melanoma = test system: SK-MEL-28 melanoma
SK-MEL-5 melanoma = test system: SK-MEL-5 melanoma
SK-OV-3 ovarian = test system: SK-OV-3 ovarian
SN12C renal = test system: SN12C renal
SNB-19 CNS = test system: SNB-19 CNS
SNB-75 CNS = test system: SNB-75 CNS
SR leukemia = test system: SR leukemia
SW-620 colon = test system: SW-620 colon
T-47D breast = test system: T-47D breast
TK-10 renal = test system: TK-10 renal
UACC-257 melanoma = test system: UACC-257 melanoma
UACC-62 melanoma = test system: UACC-62 melanoma
UO-31 renal = test system: UO-31 renal

C[C@@H]1CCC2[C@@H](C)[C@@H](OC3CCC(O)CC3)OC3O[C@@]4(C)CCC1[C@]32OO4 (stereo partly specified)
inactive: GI50 (786-0 renal) > 100 µM | GI50 (A498 renal) > 100 µM | GI50 (A549 NSCLC) 67.1 µM | GI50 (ACHN renal) 67.2 µM | GI50 (BT-549 breast) > 100 µM | GI50 (CAKI-1 renal) 95.9 µM | GI50 (CCRF-CEM leukemia) 37.8 µM | GI50 (COLO 205 colon) 8.83 µM | GI50 (DU-145 prostate) > 100 µM | GI50 (EKVX NSCLC) 32.5 µM | GI50 (HCC-2998 colon) > 100 µM | GI50 (HCT-116 colon) 71.2 µM | GI50 (HCT-15 colon) 3.61 µM | GI50 (HL-60(TB) leukemia) 4.35 µM | GI50 (HOP-62 NSCLC) > 100 µM | GI50 (HOP-92 NSCLC) 23.1 µM | GI50 (HS 578T breast) 90.2 µM | GI50 (HT29 colon) 97.4 µM | GI50 (IGROV1 ovarian) > 100 µM | GI50 (K-562 leukemia) 26.8 µM | GI50 (KM12 colon) 51.6 µM | GI50 (LOX IMVI melanoma) 24.5 µM | GI50 (M14 melanoma) > 100 µM | GI50 (MALME-3M melanoma) > 100 µM | GI50 (MCF7 breast) 38.5 µM | GI50 (MDA-MB-231 breast) > 100 µM | GI50 (MDA-MB-435) > 100 µM | GI50 (MDA-N) > 100 µM | GI50 (MOLT-4 leukemia) 10.1 µM | GI50 (NCI-H226 lung) > 100 µM | GI50 (NCI-H23 lung) 96.7 µM | GI50 (NCI-H460 lung) > 100 µM | GI50 (NCI-H522 lung) 38.5 µM | GI50 (NCI/ADR-RES ovarian) 39.9 µM | GI50 (OVCAR-3 ovarian) 66.7 µM | GI50 (OVCAR-4 ovarian) 46.4 µM | GI50 (OVCAR-5 ovarian) 82.4 µM | GI50 (OVCAR-8 ovarian) 16.1 µM | GI50 (PC-3 prostate) 23.9 µM | GI50 (RPMI-8226 leukemia) 7.04 µM | GI50 (RXF 393 renal) > 100 µM | GI50 (SF-268 CNS) 76.5 µM | GI50 (SF-295 CNS) 45.8 µM | GI50 (SF-539 CNS) > 100 µM | GI50 (SK-MEL-2 melanoma) 92.6 µM | GI50 (SK-MEL-28 melanoma) > 100 µM | GI50 (SK-MEL-5 melanoma) 36.3 µM | GI50 (SK-OV-3 ovarian) > 100 µM | GI50 (SN12C renal) > 100 µM | GI50 (SNB-19 CNS) > 100 µM | GI50 (SNB-75 CNS) > 100 µM | GI50 (SR leukemia) 7.84 µM | GI50 (SW-620 colon) > 100 µM | GI50 (T-47D breast) 19.9 µM | GI50 (TK-10 renal) 36.8 µM | GI50 (UACC-257 melanoma) > 100 µM | GI50 (UACC-62 melanoma) 72 µM | GI50 (UO-31 renal) 6.3 µM
> 100 µM: TGI (786-0 renal) | TGI (A498 renal) | TGI (A549 NSCLC) | TGI (ACHN renal) | TGI (BT-549 breast) | TGI (CAKI-1 renal) | TGI (CCRF-CEM leukemia) | TGI (DU-145 prostate) | TGI (EKVX NSCLC) | TGI (HCC-2998 colon) | TGI (HCT-116 colon) | TGI (HCT-15 colon) | TGI (HL-60(TB) leukemia) | TGI (HOP-62 NSCLC) | TGI (HOP-92 NSCLC) | TGI (HS 578T breast) | TGI (HT29 colon) | TGI (IGROV1 ovarian) | TGI (K-562 leukemia) | TGI (KM12 colon) | TGI (LOX IMVI melanoma) | TGI (M14 melanoma) | TGI (MALME-3M melanoma) | TGI (MCF7 breast) | TGI (MDA-MB-231 breast) | TGI (MDA-MB-435) | TGI (MDA-N) | TGI (MOLT-4 leukemia) | TGI (NCI-H226 lung) | TGI (NCI-H23 lung) | TGI (NCI-H460 lung) | TGI (NCI-H522 lung) | TGI (NCI/ADR-RES ovarian) | TGI (OVCAR-3 ovarian) | TGI (OVCAR-4 ovarian) | TGI (OVCAR-5 ovarian) | TGI (OVCAR-8 ovarian) | TGI (PC-3 prostate) | TGI (RPMI-8226 leukemia) | TGI (RXF 393 renal) | TGI (SF-268 CNS) | TGI (SF-295 CNS) | TGI (SF-539 CNS) | TGI (SK-MEL-2 melanoma) | TGI (SK-MEL-28 melanoma) | TGI (SK-MEL-5 melanoma) | TGI (SK-OV-3 ovarian) | TGI (SN12C renal) | TGI (SNB-19 CNS) | TGI (SNB-75 CNS) | TGI (SR leukemia) | TGI (SW-620 colon) | TGI (T-47D breast) | TGI (TK-10 renal) | TGI (UACC-257 melanoma) | TGI (UACC-62 melanoma) | TGI (UO-31 renal)
32.7 µM: TGI (COLO 205 colon)
